According to patent US5126336A, “Antibiotic C-3 catechol-substituted cephalosporin compounds, compositions and method of use thereof” (Bristol-Myers Squibb Company, priority 1990, dated 1992):
In brackets after ≈: the same amount, converted by molar mass. Read-outs that look alike come from different tables or passages of the source.

How the values were obtained:
Assay in all cases: MIC, agar dilution
Type in all cases: cell-based
[1] = test system: P. aeruginosa A9843A; conditions: Pseudomonas aeruginosa, A9843A, 18 h, pH 7.2
Protocol: (§1) Minimum inhibitory concentrations (MICs) of the present series of cephalosporins were determined against 32 strains of test organisms by two-fold serial agar dilution method in Mueller-Hinton agar. Geometric means of MICs were calculated against six groups of the test organisms which are classified as follows and summarized in Table 1.
(§2) In vivo antibacterial activity was determined against three bacterial infections (S. aureus Smith, E. coli Juhl and P. aeruginosa A9843A) by intramuscular administration to mice just after the bacterial challenge. PD50 values are summarized in Table 3 in comparsion with the MIC values against the corresponding organisms.
(§3) Medium; MuellerHinton agar (pH = 7.2)
(§4) Incubation temperature: 32° C., 18 hr
(§5) Inoculum size; 10^6 cells/ml

[2] = test system: E. coli Juhl A15119; conditions: Escherichia coli, JUHLA15119; E. coli Juhl A15119; Mueller-Hinton agar pH 7.2; 32° C., 18 hr; 10^6 cells/ml; read-out: MIC
Protocol: as §1, §2, §3, §4, §5

[3] = test system: S. aureus Smith; conditions: Staphylococcus aureus
Protocol: as §1, §2, §3, §4, §5

[4] = test system: S. aureus 209P; conditions: Staphylococcus aureus; S. aureus 209P; Mueller-Hinton agar pH 7.2; 32° C., 18 hr; 10^6 cells/ml; read-out: MIC
Protocol: as §1, §3, §4, §5

[5] = test system: P. aeruginosa IPM-9; conditions: Pseudomonas aeruginosa, IPM9, Mueller-Hinton agar pH 7.2, 32° C., 18 hr, 10^6 cells/ml
Protocol: as §1, §3, §4, §5

[6] = test system: M. luteus 1001; conditions: Micrococcus luteus, Mueller-Hinton agar pH 7.2, 32° C., 18 hr, 10^6 cells/ml
Protocol: as §1, §3, §4, §5

[7] = test system: X. maltophilia GN 12873; conditions: Stenotrophomonas maltophilia, GN12873, Mueller-Hinton agar pH 7.2, 32° C., 18 hr, 10^6 cells/ml
Protocol: as §1, §3, §4, §5

[8] = test system: K. pneumoniae PCI 602; conditions: Klebsiella pneumoniae, PCI602, Mueller-Hinton agar pH 7.2, 32° C., 18 hr, 10^6 cells/ml
Protocol: as §1, §3, §4, §5

[9] = test system: S. marcescens IPM-15; conditions: Serratia marcescens, IPM15, Mueller-Hinton agar pH 7.2, 32° C., 18 hr, 10^6 cells/ml
Protocol: as §1, §3, §4, §5

[10] = test system: X. maltophilia No. 661; conditions: Stenotrophomonas maltophilia, Mueller-Hinton agar pH 7.2, 32° C., 18 hr, 10^6 cells/ml
Protocol: as §1, §3, §4, §5

[11] = test system: E. coli 255; conditions: Escherichia coli, Mueller-Hinton agar pH 7.2, 32° C., 18 hr, 10^6 cells/ml
Protocol: as §1, §3, §4, §5

[12] = test system: P. mirabilis IFO-2849; conditions: Proteus mirabilis, IFO2849, Mueller-Hinton agar pH 7.2, 32° C., 18 hr, 10^6 cells/ml
Protocol: as §1, §3, §4, §5

[13] = test system: E. cloacae IPM-12; conditions: Enterobacter cloacae, IPM12, Mueller-Hinton agar pH 7.2, 32° C., 18 hr, 10^6 cells/ml
Protocol: as §1, §3, §4, §5

[14] = test system: S. marcescens IPM-16; conditions: Serratia marcescens, IPM16, Mueller-Hinton agar pH 7.2, 32° C., 18 hr, 10^6 cells/ml
Protocol: as §1, §3, §4, §5

[15] = test system: P. aeruginosa IPM-8; conditions: Pseudomonas aeruginosa, IPM8, Mueller-Hinton agar pH 7.2, 32° C., 18 hr, 10^6 cells/ml
Protocol: as §1, §3, §4, §5

[16] = test system: E. faecium A24817; conditions: Enterococcus faecium, Mueller-Hinton agar pH 7.2, 32° C., 18 hr, 10^6 cells/ml
Protocol: as §1, §3, §4, §5

[17] = test system: P. aeruginosa KKA 19; conditions: Pseudomonas aeruginosa, KKA19, Mueller-Hinton agar pH 7.2, 32° C., 18 hr, 10^6 cells/ml
Protocol: as §1, §3, §4, §5

[18] = test system: P. cepacia No. 651; conditions: Burkholderia cepacia, Mueller-Hinton agar pH 7.2, 32° C., 18 hr, 10^6 cells/ml
Protocol: as §1, §3, §4, §5

[19] = test system: M. morgani 1510; conditions: Mueller-Hinton agar pH 7.2, 32° C., 18 hr, 10^6 cells/ml
Protocol: as §1, §3, §4, §5

[20] = test system: B. subtilis PCI 219; conditions: Bacillus subtilis, PCI219, Mueller-Hinton agar pH 7.2, 32° C., 18 hr, 10^6 cells/ml
Protocol: as §1, §3, §4, §5

[21] = test system: S. epidermidis 11-1230; conditions: Staphylococcus epidermidis, 111230, Mueller-Hinton agar pH 7.2, 32° C., 18 hr, 10^6 cells/ml
Protocol: as §1, §3, §4, §5

[22] = test system: P. aeruginosa A20599; conditions: Pseudomonas aeruginosa, Mueller-Hinton agar pH 7.2, 32° C., 18 hr, 10^6 cells/ml
Protocol: as §1, §3, §4, §5

[23] = test system: C. freundii GN 7391; conditions: Citrobacter freundii, GN7391, Mueller-Hinton agar pH 7.2, 32° C., 18 hr, 10^6 cells/ml
Protocol: as §1, §3, §4, §5

[24] = test system: P. vulgaris IPM-13; conditions: Proteus vulgaris, IPM13, Mueller-Hinton agar pH 7.2, 32° C., 18 hr, 10^6 cells/ml
Protocol: as §1, §3, §4, §5

[25] = test system: S. aureus IPM-24 (MRSA); conditions: Staphylococcus aureus, Mueller-Hinton agar pH 7.2, 32° C., 18 hr, 10^6 cells/ml
Protocol: as §1, §3, §4, §5

[26] = test system: M. morgani 1510/9; conditions: Mueller-Hinton agar pH 7.2, 32° C., 18 hr, 10^6 cells/ml
Protocol: as §1, §3, §4, §5

[27] = test system: S. aureus 4-1015 (MRSA); conditions: Staphylococcus aureus, Mueller-Hinton agar pH 7.2, 32° C., 18 hr, 10^6 cells/ml
Protocol: as §1, §3, §4, §5

[28] = test system: P. cepacia A21213; conditions: Burkholderia cepacia, Mueller-Hinton agar pH 7.2, 32° C., 18 hr, 10^6 cells/ml
Protocol: as §1, §3, §4, §5

[29] = test system: P. rettgeri IPM-14; conditions: Providencia rettgeri, IPM14, Mueller-Hinton agar pH 7.2, 32° C., 18 hr, 10^6 cells/ml
Protocol: as §1, §3, §4, §5

[30] = test system: E. faecalis A9808; conditions: Enterococcus faecalis, Mueller-Hinton agar pH 7.2, 32° C., 18 hr, 10^6 cells/ml
Protocol: as §1, §3, §4, §5

[31] = test system: C. terrigena IFO 12685; conditions: Mueller-Hinton agar pH 7.2, 32° C., 18 hr, 10^6 cells/ml
Protocol: as §1, §3, §4, §5

[32] = S. aureus Smith, Mueller-Hinton agar pH 7.2, 32° C., 18 hr, 10^6 cells/ml, read-out: MIC

Row | SMILES | MIC [1] [µg/mL] | MIC [2] [µg/mL] | MIC [4] [µg/mL] | MIC [5] [µg/mL] | MIC [6] [µg/mL] | MIC [7] [µg/mL] | MIC [8] [µg/mL] | MIC [9] [µg/mL] | MIC [10] [µg/mL] | MIC [11] [µg/mL] | MIC [12] [µg/mL] | MIC [13] [µg/mL] | MIC [14] [µg/mL] | MIC [15] [µg/mL] | MIC [16] [µg/mL] | MIC [17] [µg/mL] | MIC [18] [µg/mL] | MIC [19] [µg/mL] | MIC [20] [µg/mL] | MIC [21] [µg/mL] | other results
1 | CC(C)(O/N=C(\C(=O)NC1C(=O)N2C(C(=O)O)=C(/C=C/Cn3cnc4cc(O)c(O)cc43)CS[C@H]12)c1csc(N)n1)C(=O)O (stereo partly drawn) [Io, 7-[(Z)-2-(2-Aminothiazol-4-yl)-2-(1-methyl-1-carboxyethoxy-imino)acetamido]-3-[(E)-3-(5,6-dihydroxybenzimidazol-1-yl)-1-propen-1-yl]-3-cephem-4-carboxylic acid] | 0.4 (≈ 0.621 µM) | 1.6 (≈ 2.49 µM) | 12.5 (≈ 19.4 µM) | 25 (≈ 38.8 µM) | 6.3 (≈ 9.79 µM) | 3.1 (≈ 4.82 µM) | 0.05 (≈ 0.0777 µM) | > 100 | 1.6 (≈ 2.49 µM) | 0.2 (≈ 0.311 µM) | 0.2 (≈ 0.311 µM) | 12.5 (≈ 19.4 µM) | 25 (≈ 38.8 µM) | 0.4 (≈ 0.621 µM) | > 100 | 0.8 (≈ 1.24 µM) | 6.3 (≈ 9.79 µM) | 3.1 (≈ 4.82 µM) | 12.5 (≈ 19.4 µM) | 50 (≈ 77.7 µM) | MIC [3, 32]: 25 µg/mL (≈ 38.8 µM); MIC [22]: 0.8 µg/mL (≈ 1.24 µM); MIC [23]: 25 µg/mL (≈ 38.8 µM); MIC [24]: 50 µg/mL (≈ 77.7 µM); MIC [25]: 100 µg/mL (≈ 155 µM); MIC [26]: 0.8 µg/mL (≈ 1.24 µM); MIC [27]: > 100 µg/mL; MIC [28]: 6.3 µg/mL (≈ 9.79 µM); MIC [29]: 1.6 µg/mL (≈ 2.49 µM); MIC [30]: > 100 µg/mL; MIC [31]: 3.1 µg/mL (≈ 4.82 µM)
2 | C[n+]1cn(C/C=C/C2=C(C(=O)[O-])N3C(=O)C(NC(=O)/C(=N\OC(C)(C)C(=O)O)c4csc(N)n4)C3SC2)c2cc(O)c(O)cc21 (stereo not drawn) [Ip, 7-[(Z)-2-(2-Aminothiazol-4-yl)-2-(1-methyl-1-carboxyethoxy-imino)acetamido]-3-[(E)-3-(5,6-dihydroxy-3-methylbenzimi-dazol-3-io-1-yl)-1-propen-1-yl]-3-cephem-4-carboxylate] | 0.1 (≈ 0.152 µM) | 0.2 (≈ 0.304 µM) | 25 (≈ 38 µM) | 12.5 (≈ 19 µM) | 3.1 (≈ 4.71 µM) | 1.6 (≈ 2.43 µM) | 0.013 (≈ 0.0198 µM) | > 100 | 0.8 (≈ 1.22 µM) | 0.05 (≈ 0.076 µM) | 0.05 (≈ 0.076 µM) | 3.1 (≈ 4.71 µM) | 3.1 (≈ 4.71 µM) | 0.1 (≈ 0.152 µM) | > 100 | 0.2 (≈ 0.304 µM) | 3.1 (≈ 4.71 µM) | 1.6 (≈ 2.43 µM) | 12.5 (≈ 19 µM) | 25 (≈ 38 µM) | MIC ([3]; 18 h, pH 7.2): 100 µg/mL (≈ 152 µM); MIC [22]: 0.2 µg/mL (≈ 0.304 µM); MIC [23]: 12.5 µg/mL (≈ 19 µM); MIC [24]: 12.5 µg/mL (≈ 19 µM); MIC [25]: > 100 µg/mL; MIC [26]: 0.1 µg/mL (≈ 0.152 µM); MIC [27]: > 100 µg/mL; MIC [28]: 1.6 µg/mL (≈ 2.43 µM); MIC [29]: 0.2 µg/mL (≈ 0.304 µM); MIC [30]: > 100 µg/mL; MIC [31]: 1.6 µg/mL (≈ 2.43 µM)
3 | CO/N=C(\C(=O)NC1C(=O)N2C(C(=O)O)=C(/C=C/Cn3cnc4cc(O)c(O)cc43)CS[C@H]12)c1csc(N)n1 (stereo partly drawn) [Iu, 7-[(Z)-2-(2-aminothiazol-4-yl)-2-methoxyiminoacetamido]-3-[(E)-3-(5,6-dihydroxybenzimidazol-1-yl)-1-propen-1-yl]-3-cephem-4-carboxylic acid] | 6.3 (≈ 11 µM) | 0.2 (≈ 0.35 µM) | 6.3 (≈ 11 µM) | 100 (≈ 175 µM) | 0.8 (≈ 1.4 µM) | > 100 | 0.05 (≈ 0.0875 µM) | > 100 | > 100 | 0.8 (≈ 1.4 µM) | 0.1 (≈ 0.175 µM) | > 100 | > 100 | 25 (≈ 43.7 µM) | > 100 | 100 (≈ 175 µM) | > 100 | 25 (≈ 43.7 µM) | 3.1 (≈ 5.42 µM) | 50 (≈ 87.5 µM) | MIC [3, 32]: 6.3 µg/mL (≈ 11 µM); MIC [22]: 6.3 µg/mL (≈ 11 µM); MIC [23]: 100 µg/mL (≈ 175 µM); MIC [24]: > 100 µg/mL; MIC [25]: > 100 µg/mL; MIC [26]: 0.4 µg/mL (≈ 0.7 µM); MIC [27]: 50 µg/mL (≈ 87.5 µM); MIC [28]: > 100 µg/mL; MIC [29]: 0.8 µg/mL (≈ 1.4 µM); MIC [30]: 100 µg/mL (≈ 175 µM); MIC [31]: 1.6 µg/mL (≈ 2.8 µM)
